# Tests used:
# [1] = test system: dechlorinating bacteria known to convert PCE to ethene; experiment: Set D: Efficiency by COD Analysis; format: cell-based, Dehalococcoides and Dehalobacter spp.
# Text: Efficiency may be defined as the percent of electron donor utilized for dechlorination, and may be calculated by dividing the pmoles of Chloride ion generated by the pmoles of electron donor consumed as measured by either Volatile Fatty Acid (VFA) analysis (Sets B, C, and G) or Chemical Oxygen Demand (COD) analysis (Set D and E). The Relative Efficiency of the electron donor utilization may be defined as the Efficiency of the Electron Donor divided by the Efficiency of the Lactate Control.
# The COD analysis calculates the utilization of electron donor by measuring the starting COD and the final COD taking the difference and converting mg/L to pmoles of electrons. The pmoles of electrons used for dechlorination was determined from the calculated Chloride produced leading to an Efficiency and Relative Efficiency of electron donor utilization as compared to lactate.
# [2] = test system: dechlorinating bacteria known to convert PCE to ethene; experiment: Set C: Nutrient Comparisons, PCE dechlorination microcosms (kinetics, Relative Rate); format: cell-based, Dehalococcoides and Dehalobacter spp.
# Text: Certain contaminated materials (or sites) may contain indigenous microbial communities that are sufficient for complete bioremediation of contaminants. For such sites, there is no need to add microbes unless the indigenous microbes are genetically deficient in achieving the desired clean-up goals. For those sites that are microbiologically limited, microorganisms may be added to the contaminated materials (or sites). In one embodiment, the inoculum may be a mixed culture of halo-respiring bacteria that have been enriched to reach an optimal cell density. These mixed cultures of halo-respiring bacteria may be typically obtained from sediment samples from rivers, streams or any waterways. More specifically, the inoculum used in the Examples was originated from a Sangamon River sediment sample (Lodge Park, Piatt County, Ill.) See, e.g., Brennan, R. A., Sanford, R. A. and Werth, C. J. (2006). “Biodegradation of Tetrachloroethene by Chitin Fermentation Products in a Continuous Flow Column System.” Journal of Environ. Engr., June 665-673. This culture had grown for several years on PCE, anaerobic basal salts medium, Wolfe's vitamin solution and various electron donors including lactate (1-2 millimolar (mM)), formate (4 mM) and chitin using the Volatile Interface Transfer Apparatus (VITA) reactor system at the University of Illinois. Brennan, R. A., and Sanford, R. A. (2002). “Continuous steady-state method using Tenax for delivering tetrachloroethene to chlororespiring bacteria.” Appl. Environ. Microbiol., 68(3), 1464-1467. […] Using 16S rRNA gene-specific primers, both Dehalococcoides and Dehalobacter spp. were detected. Quantitative real-time PCR has been used to determine that approximately 1.65×10^7 Dehalococcoides gene copies were present per ml of culture.
# For purpose of this disclosure, each bottle may be started with a certain amount of PCE. At subsequent times each bottle may be sampled for the degradation daughter products of PCE, namely trichloroethene (TCE), cis-dichloroethene (DCE), vinyl chloride (VC) and ethene, etc. Trans-DCE and 1,1-DCE are also daughter products of PCE, but they may not be detectable under the conditions disclosed here.
# The rate of degradation may be determined by calculating the number of pmoles of chloride ions removed from PCE and subsequently from the amounts of the daughter products generated. The calculation may be performed as follows: Chloride (μmoles)=[…]−4×PCE (μmoles)−3×TCE (pmoles)−2×DCE (μmoles)−VC (μmoles)
# Next, the dechlorination rate may be determined for each bottle at each time by dividing the Chloride generated by the time (days). The data may be then normalized to the lactate control by taking the ratio of Chloride Rate (pmoles/day) and the Lactate Control Chloride Rate (pmoles/day). This ratio is called Relative Rate and is dimensionless.
# As shown in the Examples, a paired t-test has been conducted to calculate the probability that the Relative Rate of one group (i.e. with Nutrient) is greater than the other group (i.e. without Nutrient). The null hypothesis is that the underlying means of the two paired groups are equal. The Probability that one group has higher Relative Rates than the other group is shown in various tables in the Examples.
# The following components were used in the system for bioremediating contaminated ground water microcosms in Examples 2-8: • 160 milliliter (ml) stoppered serum bottles • 100 ml of anaerobic culture medium, groundwater containing an excess of bioavailable phosphorus and nitrogen at 0.5 mM Phosphate and 1 mM ammonium degassed with a nitrogen sparge • Nominally 1 gram of limestone • 19.54 micromoles (pmoles) Perchloroethene (PCE) • An excess of various electron donors were utilized • 3 ml of inoculum containing dechlorinating bacteria known to convert PCE to ethene. […]
structure (smiles),measurement,setting,value
"CC(O)C(=O)[O-].[Na+] (centres unmarked) [Lactate Control, sodium lactate]",% of e^− used for dechlor.,[1],7%
same,Chloride,[1]; Efficiency by COD Analysis,64.63 µmol
same,Relative Efficiency,[1]; relative to Lactate Control,100%
same,Average Relative Rate,[2],1.00
same,Cl^− Rate ± s.d.,[2]; 0 days,0.00 ± 0.00 µmol
same,Cl^− ± s.d.,[2]; 0 days,0.00 ± 0.00 µmol
same,DCE ± s.d.,[2]; 0 days,0.00 ± 0.00 µmol
same,Ethene ± s.d.,[2]; 0 days,0.00 ± 0.00 µmol
same,PCE ± s.d.,[2]; 0 days,19.54 ± 0.00 µmol
same,TCE ± s.d.,[2]; 0 days,0.00 ± 0.00 µmol
same,VC ± s.d.,[2]; 0 days,0.00 ± 0.00 µmol
same,Cl^− Rate ± s.d.,[2]; 21 days,2.43 ± 0.13 µmol
same,Cl^− ± s.d.,[2]; 21 days,51.01 ± 2.69 µmol
same,DCE ± s.d.,[2]; 21 days,5.05 ± 0.62 µmol
same,Ethene ± s.d.,[2]; 21 days,0.09 ± 0.02 µmol
same,PCE ± s.d.,[2]; 21 days,0.66 ± 0.52 µmol
same,TCE ± s.d.,[2]; 21 days,1.20 ± 1.01 µmol
same,VC ± s.d.,[2]; 21 days,10.83 ± 1.56 µmol
same,Cl^− Rate ± s.d.,[2]; 35 days,1.36 ± 0.03 µmol
same,Cl^− ± s.d.,[2]; 35 days,47.71 ± 1.16 µmol
same,DCE ± s.d.,[2]; 35 days,2.02 ± 1.88 µmol
same,Ethene ± s.d.,[2]; 35 days,0.54 ± 0.29 µmol
same,PCE ± s.d.,[2]; 35 days,0.00 ± 0.00 µmol
same,TCE ± s.d.,[2]; 35 days,0.00 ± 0.00 µmol
same,VC ± s.d.,[2]; 35 days,26.41 ± 2.65 µmol
same,Cl^− Rate ± s.d.,[2]; 49 days,1.03 ± 0.01 µmol
same,Cl^− ± s.d.,[2]; 49 days,50.42 ± 0.27 µmol
same,DCE ± s.d.,[2]; 49 days,0.00 ± 0.00 µmol
same,Ethene ± s.d.,[2]; 49 days,3.79 ± 1.31 µmol
same,PCE ± s.d.,[2]; 49 days,0.00 ± 0.00 µmol
same,TCE ± s.d.,[2]; 49 days,0.00 ± 0.00 µmol
same,VC ± s.d.,[2]; 49 days,27.74 ± 0.27 µmol
same,Relative Rate,"[2]; bottle 1, 21 days",1.06
same,Relative Rate,"[2]; bottle 1, 35 days",1.02
same,Relative Rate,"[2]; bottle 1, 49 days",1.00
same,Relative Rate,"[2]; bottle 2, 21 days",0.99
same,Relative Rate,"[2]; bottle 2, 35 days",0.97
same,Relative Rate,"[2]; bottle 2, 49 days",0.99
same,Relative Rate,"[2]; bottle 3, 21 days",0.95
same,Relative Rate,"[2]; bottle 3, 35 days",1.00
same,Relative Rate,"[2]; bottle 3, 49 days",1.01
